Source: publication PMC10447463, “Data-mining unveils structure–property–activity correlation of viral infectivity enhancing self-assembling peptides” (Nature Communications, 2023)

Assays:
[1] = test system: HIV-1 infection of TZM-bl cells; test: HIV-1 infectivity enhancement assay, β-galactosidase luminescence; assay type: cell-based; conditions: for Log10 Infection Rel EF-C: log10 of infection relative to EF-C; for Inf. rel. EF-C: n-fold infection vs virus only, relative to that of EF-C, 1.3 µM peptide; for Abs Infection at 0.26µM: peptide 0.26 µM; for Abs Infection at 0.26µM / Abs Infection at 1.3 µM / Abs Infection at 6.5 µM: mean of n = 3, Figure 7A; for Abs Infection at 1.3 µM: peptide 1.3 µM; for Abs Infection at 6.5 µM: peptide 6.5 µM
[2] = assay type: physicochemical; parameters: key to Fibril / Fibril Formation / TEM 2cat / Fibril: 1 = fibrils present; 0 non-fibrillar structures; conditions: TEM, 1 mg/mL, uranyl acetate stain, qualitative
Procedure: For ATR FT–IR spectroscopy measurements, 200 µL of the respective 1 mg/mL PNF solution was lyophilized and the resulting powder used for measurement. All spectra were recorded on a Bruker Tensor 27 spectrometer with a diamond crystal as ATR element (PIKE MiracleTM, spectral resolution 2 cm^-1). Every sample was measured with 64 scans. Data were analyzed with OriginLab software and calculation of β–sheet content was conducted according to a previous report. TEM. For TEM measurements 5 µL of PNF fibrils (1 mg/mL) were placed on copper grids coated with carbon and formvar layer (300 mesh, Plano GmbH). After 10 min incubation time, the grids were staining with 4% uranyl acetate solution for 2.5 min and washed with water. Measurements were performed on a Jeol 1400 electron microscope with 120 kV acceleration voltage. CR Assay. For the determination of the amount of peptide monomer converting into nanostructures the amine reactive dye fluorescamine was used analogous to a previous reported protocol. Briefly, 100 µL of the preformed PNF solution was centrifuged in a Vivaspin 500 tube (3 kDa MWCO) to separate fibers from free peptide monomer (16200 x g, 4 °C, 45 min). The filtrate and 100 μL of the non-filtered PNF sample were lyophilized and dissolved in 30 μL DMSO. 10 μL of the filtrate and non-filtered DMSO samples were submitted in a black UV Star® 384 microliter well–plates (Greiner bio–one) and 3 μL of the fluorescamine solution (10 mg/mL, DMSO) was added to measure the fluorescence enhancement. After 20 min of incubation at RT, fluorescence was recorded on an Infinite® M1000 PRO microplate reader (Tecan) at λem = 470 nm upon excitation at λex = 365 nm with 10 nm bandwidths and multiple reads per well (3×3). Measurements were repeated in triplicates and averaged with standard deviation. All values were calculated as n-fold fluorescence enhancement (DMSO only as a reference was set to 1). The conversion rate CR was defined according to the equation Eq. (3).3 CR=100−100×fluorescenceintensityfiltrate/fluorescenceintensityoriginal[%]
(§1) 1. Remarks on experimental parameters and bioinformatic descriptors
1.1 Experimental parameters
Transmission electron microscopy (TEM) measurements. TEM measurements were used to control if peptides assemble. The assemblies were categorized in non -fibrillar structures (no assembly, […]
grid but only amorphous aggregates. In contrast, peptides defined as fibrillar may also include amorphous structures. Amongst nonfibrillar assemblies also amorphous aggregates are summarized.
Amorphous aggregates are defined as structures with high β-sheet content which lack long-range order, that is crystallinity or fibril formation. It is generally assumed that these structures might be

[3] = Zeta-potential measurement; assay type: physicochemical; parameters: Zeta-Potential: unit not given here; conditions: for Zeta-Potential / mV: mean
Procedure: (§2) 4 µL of 1 mg/mL peptide fibrils solution is added to a 20 µL, 50 µM ThT–solution in PBS. The mixture is incubated for 15 min at RT to allow binding of ThT dye with β–sheet rich structures. For reference PBS (4 µL) was added instead of peptide fibril solution. The samples were placed in black UV Star® 384 microliter well–plates (Greiner bio–one). Fluorescence spectra were recorded on an Infinite® M1000 PRO microplate reader (Tecan) at λem = 488 nm upon excitation at λex = 440 nm with 10 nm bandwidths and multiple reads per well (3×3). Measurements were repeated in triplicates and averaged with standard deviation. […] Zeta-Potential. For the determination of the surface charge of aggregated peptides zeta-potential measurements were conducted with a Zetasizer Nano ZS, Malvern Instruments. Unless stated otherwise the peptides were dissolved from DMSO (10 mg/mL) in PBS (pH 7.4) to concentration of 1 mg/mL and incubated for 1d at RT. Just before the measurement the 60 µL of the peptides were further diluted in 600 µL KCl (aq, 1 mM) in a 1 mL disposable folded capillary cells (DTS–1060, Zetasizer Nano series, Malvern). The zeta potential of the peptides was derived from the electrophoretic mobility based on the Smoluchowski formula. All measurements were averaged over two individually performed experiments and conducted in triplicates for each sample. Aggregate analysis. […] Furthermore, fluorescence microscopy was conducted by staining 1 µL preformed fibrils (1 mg/mL) with 9 µL ThT (50 µM). Brightfield microscopy was performed simultaneously to evaluate aggregation also for non ThT-active fibrils. The measurements were performed on a Leica DMi8 microscope with 10x air objective and equipped with a Leica MC170 HD camera with a filter setting λem = 527/30 nm upon excitation at λex = 480/40 nm) and processed with the Leica LASX software. To quantify size and number of microscopic aggregation of particles > 10 µm^2 at least 3 independently measured images were analyzed via the 3D object counter analysis tool of ImageJ, v 1.53f51. Sum–frequency generation. The SFG experiments were carried out with a femtosecond Ti: Sapphire amplified laser system (Spitfire Ace, Spectra–Physics, 800 nm, 40 fs, 1 kHz) with 5 W output power. We used 2 W to pump an optical parametric amplifier (TOPAS, light conversion) with a non–collinear difference frequency generation stage to generate broadband IR pulses. Another 1 W of the laser output passed through an etalon to generate narrowband visible pulses (10 cm^-1). The incident angles of the visible and IR beams were 36° and 41° with respect to the surface normal, respectively. The visible (13 µJ) and IR (5 µJ) pulses were overlapped spatially and temporally at the sample position. Subsequently, the generated SFG pulse was guided into a spectrograph (Acton SP 300i, Princeton Instruments), and detected with an EMCCD (Newton, Andor Technology). To avoid IR absorption of water vapor, we purged N2 for the measurement. All spectra were collected in the ssp (denoting s-, s- and p-polarized SFG, visible and IR, respectively) polarization combination. The spectra were normalized to the non–resonant signal taken from z–cut quartz after subtracting a background spectrum. […]

[4] = Turbidity, derived count rate of scattered light; assay type: physicochemical; conditions: for Count Rate / kcps: derived count rate of scattered light at 633 nm, 173°, from zeta-potential measurement, 0.1 mg/mL in 1 mM KCl after 1 d at 1 mg/mL in PBS, turbidity / microscopic aggregation, mean of triplicate; for Count Rate: derived count rate of scattered light
Procedure: as §2
ways to determine turbidity of samples, this can be via transmittance and via scattering. Transmittance […]
as it is an easy and fast method.10,11 However, transmittance contributes not only from µm-sized aggregates but also nm-sized aggregates such as distinct fibrils, which makes hard to distinguish between fibril formation and micrometer sized aggregation. Although dynamic light scattering is a frequently applied method for determination of particle size, it cannot be conducted in solutions with anisotropic aggregates in micrometer size range, since the Stokes-Einstein relation is only applicable for homogeneous […] spherical particles.12 Further models describing scattering intensity and […]

[5] = Turbidity, derived count rate of scattered light; assay type: physicochemical; conditions: log10 of derived count rate of scattered light, Figure 7B
[6] = assay type: physicochemical; conditions: ThT-active if fluorescence at least twice the control
Procedure: 4 µL of 1 mg/mL peptide fibrils solution is added to a 20 µL, 50 µM ThT–solution in PBS. The mixture is incubated for 15 min at RT to allow binding of ThT dye with β–sheet rich structures. For reference PBS (4 µL) was added instead of peptide fibril solution. The samples were placed in black UV Star® 384 microliter well–plates (Greiner bio–one). Fluorescence spectra were recorded on an Infinite® M1000 PRO microplate reader (Tecan) at λem = 488 nm upon excitation at λex = 440 nm with 10 nm bandwidths and multiple reads per well (3×3). Measurements were repeated in triplicates and averaged with standard deviation. […] Zeta-Potential. For the determination of the surface charge of aggregated peptides zeta-potential measurements were conducted with a Zetasizer Nano ZS, Malvern Instruments. Unless stated otherwise the peptides were dissolved from DMSO (10 mg/mL) in PBS (pH 7.4) to concentration of 1 mg/mL and incubated for 1d at RT. Just before the measurement the 60 µL of the peptides were further diluted in 600 µL KCl (aq, 1 mM) in a 1 mL disposable folded capillary cells (DTS–1060, Zetasizer Nano series, Malvern). The zeta potential of the peptides was derived from the electrophoretic mobility based on the Smoluchowski formula. All measurements were averaged over two individually performed experiments and conducted in triplicates for each sample. Aggregate analysis. […] Furthermore, fluorescence microscopy was conducted by staining 1 µL preformed fibrils (1 mg/mL) with 9 µL ThT (50 µM). Brightfield microscopy was performed simultaneously to evaluate aggregation also for non ThT-active fibrils. The measurements were performed on a Leica DMi8 microscope with 10x air objective and equipped with a Leica MC170 HD camera with a filter setting λem = 527/30 nm upon excitation at λex = 480/40 nm) and processed with the Leica LASX software. To quantify size and number of microscopic aggregation of particles > 10 µm^2 at least 3 independently measured images were analyzed via the 3D object counter analysis tool of ImageJ, v 1.53f51. Sum–frequency generation. The SFG experiments were carried out with a femtosecond Ti: Sapphire amplified laser system (Spitfire Ace, Spectra–Physics, 800 nm, 40 fs, 1 kHz) with 5 W output power. We used 2 W to pump an optical parametric amplifier (TOPAS, light conversion) with a non–collinear difference frequency generation stage to generate broadband IR pulses. Another 1 W of the laser output passed through an etalon to generate narrowband visible pulses (10 cm^-1). The incident angles of the visible and IR beams were 36° and 41° with respect to the surface normal, respectively. The visible (13 µJ) and IR (5 µJ) pulses were overlapped spatially and temporally at the sample position. Subsequently, the generated SFG pulse was guided into a spectrograph (Acton SP 300i, Princeton Instruments), and detected with an EMCCD (Newton, Andor Technology). To avoid IR absorption of water vapor, we purged N2 for the measurement. All spectra were collected in the ssp (denoting s-, s- and p-polarized SFG, visible and IR, respectively) polarization combination. The spectra were normalized to the non–resonant signal taken from z–cut quartz after subtracting a background spectrum.
as §1

[7] = test system: TZM-bl cells; assay type: cell-based; conditions: CellTiter-Glo, mean of n = 3 replicates
Procedure: The cell viability after addition of peptides to TZM–bl cells was studied via the CellTiter–Glo assay. To this end, 10,000 cells were seeded and on the next day serial diluted peptides were added. After 3 days the supernatant was removed and 100 µL CellTiter–Glo Reagent 1:1 diluted in PBS was added. After 10 min 50 µL was transferred to white microplate and luminescence was recorded by Orion microplate luminometer.
2. Cell Viability of Representatively Selected Peptides
Figure S 2 Cell Viability normalized to 100% metabolic activity as determined by CellTiterGlo Assay of 57 representatively selected peptides from the library. The selection represents infectivity enhancing and not […]
concentration. Error bars indicate standard deviation from triplicate measurements. Source data for Figure S2 […]
Figure S3 Cell Viability normalized to 100% metabolic activity determined by CellTiterGlo Assay of 20 peptides reported in literature. 33,34,43–48,35–42 Cell viability (> 80%) is maintained for all peptides at 1.3 µM concentration regardless of the preparation method, which is A PNF formation method by dilution of 10 mg/mL peptide stock in DMSO in PBS to 1 mg/mL or B preparation according to literature reported protocol (SI Section 8). Error bars indicate standard deviation from triplicate measurements. Source data for Figure S3 is provided.

| Substance | Log10 Infection Rel EF-C ([1]; Figure 7B) | Inf. rel. EF-C [1] | Abs Infection at 0.26µM [1] | Abs Infection at 1.3 µM [1] | Abs Infection at 6.5 µM [1] | Fibril / Fibril Formation [2] | Zeta-Potential / mV ([3]; Figure 7B) [mV] | Count Rate / kcps [4] [kcps] | Log10 Count Rate [5] | also measured |
| --- | --- | --- | --- | --- | --- | --- | --- | --- | --- | --- |
| ISKLEYSNFSVRY [reference compound] | -0.26 | 0.54 | 23820 | 58613.33333 | 157450 | 1 | 9.33 | 7807 | 3.893 | Zeta pot. / mV ([3]; 1 mg/mL in PBS pH 7.4 from 10 mg/mL DMSO stock, 1 d RT, 60 µL diluted in 600 µL 1 mM KCl, Zetasizer Nano ZS, Smoluchowski, mean of triplicate): 9.3 mV |
| LANWMCLAKW [reference compound] | -0.4 | 0.40 | 44873.33333 | 80126.66667 | 133423.3333 | – | 14.73 | 15062 | 4.178 | ThT Cat. / ThT-Fluorescence (categorical) [6]: 1 (ThT. Cat is 1, if Rel. ThT >2); Zeta Potential ([3]; mean of n = 3): 14.73; Zeta-Potential ([3]; replicate 1): 14.5; Zeta-Potential ([3]; replicate 2): 14.6; Zeta-Potential ([3]; replicate 3): 15.1; Count Rate ([4]; mean of n = 3): 15061.73333 kcps; Count Rate ([4]; replicate 1): 20482.8 kcps; Count Rate ([4]; replicate 2): 10116.2 kcps; Count Rate ([4]; replicate 3): 14586.2 kcps |
| QCKIKQIINMWQ [EF-C (Münch Stock)] | – | – | – | – | – | – | – | – | – | viability 0.26 µM ([7]; peptide 0.26 µM): 102; viability 1.3 µM ([7]; peptide 1.3 µM): 94.89; viability 6.5 µM ([7]; peptide 6.5 µM): 78.3 |
| KCQCQCQ | – | 1.15 | – | – | – | 1 | – | 15236 | – | Log10 Infection Rel EF-C ([1]; Figure 6C): 0.05949; Zeta-Potential / mV ([3]; Figure 6C): 11.83 mV; Log10 Count Rate ([4]; log10 of derived count rate of scattered light, Figure 6C): 4.183; Log10 Count Rate ([4]; logarithm of count rate in kcps): 4.183 |
